Like-named read-outs stand apart in the source and are kept apart here.
How the values were obtained:
[1] = test system: BD-iNPC derived sensory neurons; assay: In vitro chemotherapy induced neuropathy model: neurite length and cell count; format: cell-based, human; conditions: 48 hours after treatment
Excerpt: This miniaturized and automated approach illustrates the potential utility of these converted cells as an in vitro model of human axonopathy for drug-discovery and form the basis to expand to other PNS and CNS disorders.

TRPV1 vanilloid receptor = target: T1, TRPV1 vanilloid receptor (Homo sapiens, UniProt Q8NER1); assay: Calcium imaging (Fluo-4) of BD-iNPC derived sensory neurons, capsaicin response; format: cell-based; conditions: 1 μM
T1 construct: endogenous in cells; host or cells: nociceptive sensory neurons differentiated from human blood derived iNPCs
Procedure: (§1) Differentiated cells at 1-2 weeks were loaded with Fluo-4-AM fluorescence dye (Invitrogen, Calif.) for 1 hr incubation followed by 45 mins period for de-esterification. Cells were washed and incubated in Hanks' balanced salt solution (HBSS), supplemented with 25 mM HEPES buffer, 5.5 mM Glucose. Calcium flux was monitored using an Olympus IX81 inverted epi-fluorescence microscope (Olympus, Markham, ON) coupled to a xenon arc lamp (EXFO, Quebec, QC). Indicated agonists, α,β-methylene-ATP or capsaicin, were diluted in the aforementioned solution and added to the well to give the final stimulation concentration (30 μM α,β-methylene-ATP, 1 μM capsaicin) using a dropping pipette and aspirator system. Fluorescence images were collected using an EMCCD camera (Photometrics, Tucson, Ark.) every 2 s through a GFP filter cube (Semrock, Rochester, N.Y.). In a subset of wells, ionomycin was added as a second stimulation for the dye loading control. […] Off-line analysis of the intensity pattern of Fluo-4 signal was performed in ImageJ (NIH, Bethesda, Md.).

[2] = test system: voltage-activated sodium channels; format: cell-based, human
P2X3 receptors = target: T2, P2X3 receptors (Homo sapiens, UniProt P56373); format: cell-based
T2 sequence (P56373 1-397): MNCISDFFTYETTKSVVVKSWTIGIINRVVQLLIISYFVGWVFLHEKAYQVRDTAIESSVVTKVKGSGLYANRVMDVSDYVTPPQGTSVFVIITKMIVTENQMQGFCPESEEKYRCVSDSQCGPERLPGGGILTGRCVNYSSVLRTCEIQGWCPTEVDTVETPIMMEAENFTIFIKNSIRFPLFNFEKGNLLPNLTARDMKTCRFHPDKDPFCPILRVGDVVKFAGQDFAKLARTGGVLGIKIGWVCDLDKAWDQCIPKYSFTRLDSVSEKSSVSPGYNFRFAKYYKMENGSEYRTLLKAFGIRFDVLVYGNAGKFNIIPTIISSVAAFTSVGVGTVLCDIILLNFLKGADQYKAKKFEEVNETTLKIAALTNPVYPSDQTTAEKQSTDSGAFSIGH
Procedure: as §1

T1 sequence (Q8NER1 whole entry): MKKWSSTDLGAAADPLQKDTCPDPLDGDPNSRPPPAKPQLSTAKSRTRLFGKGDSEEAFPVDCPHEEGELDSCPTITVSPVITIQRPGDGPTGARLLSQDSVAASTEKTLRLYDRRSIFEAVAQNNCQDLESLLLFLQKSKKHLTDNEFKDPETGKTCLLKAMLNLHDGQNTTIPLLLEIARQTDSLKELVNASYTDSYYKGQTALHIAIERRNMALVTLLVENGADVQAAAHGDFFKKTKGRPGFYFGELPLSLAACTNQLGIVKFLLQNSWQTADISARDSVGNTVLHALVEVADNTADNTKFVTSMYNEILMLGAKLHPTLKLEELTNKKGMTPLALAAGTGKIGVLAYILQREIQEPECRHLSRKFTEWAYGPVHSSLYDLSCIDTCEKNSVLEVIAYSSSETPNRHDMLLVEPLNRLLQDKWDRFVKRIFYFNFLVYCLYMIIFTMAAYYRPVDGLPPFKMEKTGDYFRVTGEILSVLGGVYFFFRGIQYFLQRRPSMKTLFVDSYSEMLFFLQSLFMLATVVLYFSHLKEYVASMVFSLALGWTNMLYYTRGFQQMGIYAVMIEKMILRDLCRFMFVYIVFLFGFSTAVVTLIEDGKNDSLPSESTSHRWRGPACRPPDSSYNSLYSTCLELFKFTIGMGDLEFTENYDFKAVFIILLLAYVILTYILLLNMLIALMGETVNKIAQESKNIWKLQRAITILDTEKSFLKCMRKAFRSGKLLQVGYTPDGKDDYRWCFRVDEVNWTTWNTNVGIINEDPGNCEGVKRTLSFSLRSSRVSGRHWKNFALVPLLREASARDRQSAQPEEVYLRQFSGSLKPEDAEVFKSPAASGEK

CC(=O)O[C@H]1C(=O)[C@@]2(C)[C@H]([C@H](OC(=O)c3ccccc3)[C@]3(O)C[C@H](OC(=O)[C@H](O)[C@@H](NC(=O)c4ccccc4)c4ccccc4)C(C)=C1C3(C)C)[C@]1(OC(C)=O)CO[C@@H]1C[C@@H]2O [Taxol]
neurite length of sensory neurons [1]: dose-dependent reduction in length
viability (cell count) of sensory neurons [1]: without concomitant loss of viability

COc1cc(CNC(=O)CCCC/C=C/C(C)C)ccc1O [capsaicin]
calcium transients in BD-iNPC derived neurons (TRPV1 vanilloid receptor): could evoke calcium transients

NC1=N[C@H](O)[C@H]2[C@H]3O[C@]4(O)O[C@@H]([C@@H](O)[C@@]2(N1)[C@@H]4O)[C@]3(O)CO [tetrodotoxin]
rapidly activating and inactivating inward currents [2]: blocked

O=C(O)c1cc(C(=O)O)c(C(=O)N(Cc2cccc(Oc3ccccc3)c2)[C@H]2CCCc3ccccc32)cc1C(=O)O [A-317491]
calcium-response to α,β-methylene ATP (P2X3 receptors; antagonist added 15 min before calcium imaging, 30 μM α,β-methylene-ATP stimulation): significantly decreased

Nc1ncnc2c1ncn2[C@@H]1O[C@H](COP(=O)(O)CP(=O)(O)OP(=O)(O)O)[C@@H](O)[C@H]1O [α,β-methylene-ATP]
calcium transients in BD-iNPC derived neurons (P2X3 receptors; 30 μM): could evoke calcium transients
calcium flux response (P2X3 receptors; 30 μM, continued culture to day 14): robust response
calcium flux response (P2X3 receptors; 30 μM, neurons at day 7 post-induction): minimal response

— patent US20180148687A1 (priority 2015, published 2018)
